Here are results for 13 compounds from PubChem BioAssay (NCI).

Common to all, as to assay: inhibition of tumour cell growth, NCI panel, 48 h
For assay [1], the system named is HT29 colon.
The test system of assay [2] is RXF 393 renal.
Assay [3] has as its system NCI-H460 lung.
Assay [4] concerns U251 CNS.
Assay [5] relates to UACC-257 melanoma.
The subject of assay [6] is SN12C renal.
For assay [7], the system named is SK-OV-3 ovarian.
In assay [8] the test system is SF-539 CNS.

Each structure is given as a SMILES string.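 Results reflect a 48-hour exposure of cells in 96-well plates to compound at five concentrations. At the GI50, growth is halved. TGI: total growth inhibition.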 A value given as a limit tells only on which side of the number the result lay.

Take `CC(=O)c1cccc(C)c1C(=O)O`: the TGI in assay [1], in assay [2], in assay [3], in assay [4], in assay [5] and in assay [6] was over 100 µM throughout. This compound also came in with a TGI in assay [7] of over 100 µM.
`CCOC(=O)/C(=C\c1ccc(N(CCC#N)CCC#N)cc1)NC(=O)c1cc([N+](=O)[O-])ccc1Cl`: the TGI in assay [1], in assay [8], in assay [2], in assay [3], in assay [4] and in assay [5] was over 100 µM in each case. Besides, the TGI in assay [6] and in assay [7] was over 100 µM throughout.
Take `COc1cc(OC)c(SSCCCCS(=O)O)c(OC)c1`: the TGI in assay [1] stood at 32.9 µM; in assay [8], 29.5 µM; in assay [2] it was 27.6 µM; in assay [3] it was 38.1 µM; in assay [4], 27.9 µM; in assay [5], 23.5 µM. Further, the TGI stood at 33.6 µM in assay [6] and 38.6 µM in assay [7].
As to `CC(=O)OC1CCn2nnc(CO)c21` (stereo not drawn), the TGI in assay [1], in assay [8], in assay [2], in assay [3], in assay [4] and in assay [5] was over 100 µM each time. Further, the TGI in assay [6] and in assay [7] was over 100 µM each time.
As to `CC(=O)CC(N)=O`, the TGI in assay [1], in assay [8], in assay [2], in assay [3], in assay [4] and in assay [5] was over 100 µM each time. For the same compound, the TGI in assay [6] and in assay [7] was over 100 µM throughout.
Turning to `CC1=C(C(=O)Nc2cc(=O)n(C)c(=O)n2C)C(c2cccc([N+](=O)[O-])c2)C(C(=O)Nc2cc(=O)n(C)c(=O)n2C)=C(C)N1`, the TGI is over 100 µM in assay [1]; 61.7 µM in assay [8]; over 100 µM in assay [2]; over 100 µM in assay [3]; over 100 µM in assay [4]; over 100 µM in assay [5]. Also, the TGI in assay [6] and in assay [7] was over 100 µM in each case.
Consider `CN1CC(=O)N(C)c2ncn(Cc3ccccc3)c2C1=O`, for which the TGI in assay [1], in assay [8], in assay [2], in assay [3], in assay [4] and in assay [6] was over 100 µM in each case. Further, the TGI in assay [7] was over 100 µM.
Turning to `C=C(C#N)C1OCC2OC(C)(C)OC21` (stereo not drawn), the TGI is over 100 µM in assay [1]; 30 µM in assay [8]; 31.3 µM in assay [2]; 57.4 µM in assay [3]; over 100 µM in assay [4]; 30 µM in assay [5]. In addition, the TGI was 38.2 µM in assay [6] and over 100 µM in assay [7].
For the compound `Cc1cccc(C)c1CO`, the TGI in assay [1], in assay [8], in assay [2], in assay [3], in assay [4] and in assay [5] was over 100 µM each time. The TGI in assay [6] and in assay [7] was over 100 µM throughout.
For `CC(C)[O-].CC(C)[O-].O=C1C=C([O-])C(=O)c2ccccc21.O=C1C=C([O-])C(=O)c2ccccc21.[Ti+4]`, the GI50 in assay [1] is 34.9 µM; in assay [8], over 100 µM; in assay [2], over 85.3 µM; in assay [3], 15.3 µM; in assay [4], over 68.8 µM; in assay [5], 4.97 µM. Besides, the GI50 in assay [6] and in assay [7] was over 100 µM throughout. Also, the TGI in assay [1], in assay [8], in assay [2], in assay [3], in assay [4] and in assay [5] was over 100 µM each time. For the same compound, the TGI in assay [6] and in assay [7] was over 100 µM throughout.
`O=C(CCc1nnc2s/c(=C\c3ccc(Cl)c(Cl)c3)c(=O)n12)Nc1ccc(Cl)c(Cl)c1`: the TGI is over 100 µM in assay [1]; over 100 µM in assay [8]; 74 µM in assay [2]; over 100 µM in assay [3]; over 100 µM in assay [4]; over 100 µM in assay [5]. The TGI in assay [6] and in assay [7] was over 100 µM each time.
As for `CC(=O)[CH-]C(=O)c1ccccc1.CC(=O)[CH-]C(=O)c1ccccc1.CC(C)CCCC(C)[C@H]1CCC2[C@@H]3CC=C4C[C@@H]([O-])CC[C@]4(C)C3CC[C@@]21C.CC(C)CCCC(C)[C@H]1CCC2[C@@H]3CC=C4C[C@@H]([O-])CC[C@]4(C)C3CC[C@@]21C.[Ti+4]` (stereo partly drawn), the GI50 in assay [1], in assay [8], in assay [2], in assay [3], in assay [4] and in assay [5] was over 100 µM each time. The GI50 in assay [6] and in assay [7] was over 100 µM each time. The TGI in assay [1], in assay [8], in assay [2], in assay [3], in assay [4] and in assay [5] was over 100 µM in each case. Besides, the TGI in assay [6] and in assay [7] was over 100 µM throughout.
As to `COc1ccc(NC(=O)CC/C(CC(=O)C(C)(C)C)=N\NC(=O)C(=O)NN)cc1`, the TGI in assay [1], in assay [8], in assay [2], in assay [3], in assay [4] and in assay [5] was over 100 µM each time. In addition, the TGI in assay [6] and in assay [7] was over 100 µM in each case.
